pIC50: −log10 of the molar value.
biological target: T1, human c-Met (Homo sapiens, UniProt P08581); experiment: in vitro kinase assay (homogeneous time-resolved tyrosine kinase assay, METKA); format: biochemical; details: recombinant GST-tagged c-Met cytosolic domain, HTRF, 50 μM MgATP; read-out: Biological Activity (METKA IC50) Activity Code
T1 construct: Recombinant GST-tagged cytosolic domains of human c-Met; 6xHis; made in house; host or cells: Sf9 or Sf21 insect cells (baculovirus)
In short: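 HTRF assay with GST-tagged cytosolic c-Met domain (0.2 nM), 0.5 μM biotinylated peptide, 50 μM MgATP, pH 7.4, 5% DMSO, 80 min at room temperature; Eu-anti-pTyr/SA-APC detection, IC50 by 4-parameter fit. Other kinases identical except enzyme level: mouse c-Met 0.2, Ron 2.5, KDR 8, IGFR 0.24, EGFR 0.24, FGFR 0.14, Mer 16, TrkA 8, Tie2 8 nM.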

T1 sequence (P08581 956-1390 limits assumed): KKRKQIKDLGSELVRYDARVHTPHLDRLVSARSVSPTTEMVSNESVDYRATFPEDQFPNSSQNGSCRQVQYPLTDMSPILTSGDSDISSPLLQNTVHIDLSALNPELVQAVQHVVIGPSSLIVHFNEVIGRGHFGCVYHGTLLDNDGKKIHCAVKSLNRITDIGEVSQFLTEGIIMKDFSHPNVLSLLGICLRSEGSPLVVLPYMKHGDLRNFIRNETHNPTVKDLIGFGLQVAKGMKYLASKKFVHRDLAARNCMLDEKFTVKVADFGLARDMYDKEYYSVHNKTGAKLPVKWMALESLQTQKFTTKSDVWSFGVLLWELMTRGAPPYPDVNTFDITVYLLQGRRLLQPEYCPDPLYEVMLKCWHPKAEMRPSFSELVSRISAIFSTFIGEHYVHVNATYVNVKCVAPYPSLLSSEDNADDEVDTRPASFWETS

Row | Structure (SMILES) | pIC50
1 | CCOc1cnc2ccc(NCc3nn(-c4cnn(C)c4)ccc3=O)cc2c1 [Example 103, 3-{[(3-ethoxyquinolin-6-yl)amino]methyl}-1-(1-methyl-1H-pyrazol-4-yl)pyridazin-4(1H)-one] | 6.00 to 7.00
2 | Cn1cc(-n2ccc(=O)c(COc3ccc4ncc(C(=O)N5CCOCC5)cc4c3)n2)cn1 [Example 109, 1-(1-methyl-1H-pyrazol-4-yl)-3-({[3-(morpholin-4-ylcarbonyl)quinolin-6-yl]oxy}methyl)pyridazin-4(1H)-one] | 5.52 to 6.00
3 | Cn1cc(-n2ccc(=O)c(COc3ccc(N)cc3)n2)cn1 [Example 115, 3-((4-aminophenoxy)methyl)-1-(1-methyl-1H-pyrazol-4-yl)pyridazin-4(1H)-one] | 6.00 to 7.00
4 | Cn1cc(-n2ccc(=O)c(COc3ccc(NCCCCO)cc3)n2)cn1 [Example 116, 3-((4-(4-hydroxybutylamino)phenoxy)methyl)-1-(1-methyl-1H-pyrazol-4-yl)pyridazin-4(1H)-one] | 5.52 to 6.00
5 | Cn1cc(-n2ccc(=O)c(CCc3ccc(N)cc3)n2)cn1 [Example 117, 3-[2-(4-aminophenyl)ethyl]-1-(1-methyl-1H-pyrazol-4-yl)pyridazin-4(1H)-one] | 5.52 to 6.00
6 | Cn1cc(-n2ccc(=O)c(CCc3ccc(NCCCCO)cc3)n2)cn1 [Example 118, 3-(2-{4-[(4-hydroxybutyl)amino]phenyl}ethyl)-1-(1-methyl-1H-pyrazol-4-yl)pyridazin-4(1H)-one] | 6.00 to 7.00
7 | COCCOC(=O)Nc1ccc(OCc2nn(-c3cnn(C)c3)ccc2=O)cc1 [Example 119, 2-methoxyethyl (4-{[1-(1-methyl-1H-pyrazol-4-yl)-4-oxo-1,4-dihydropyridazin-3-yl]methoxy}phenyl)carbamate] | 5.52 to 6.00
8 | COCCOC(=O)Nc1ccc(CCc2nn(-c3cnn(C)c3)ccc2=O)cc1 [Example 120, 2-methoxyethyl (4-{2-[1-(1-methyl-1H-pyrazol-4-yl)-4-oxo-1,4-dihydropyridazin-3-yl]ethyl}phenyl)carbamate] | 5.52 to 6.00
9 | CCOC(=O)Nc1ccc(CCc2nn(-c3cnn(C)c3)ccc2=O)cc1 [Example 121, ethyl (4-{2-[1-(1-methyl-1H-pyrazol-4-yl)-4-oxo-1,4-dihydropyridazin-3-yl]ethyl}phenyl)carbamate] | 5.52 to 6.00
10 | CCOC(=O)Nc1ccc(OCc2nn(-c3cnn(C)c3)ccc2=O)cc1 [Example 122, ethyl (4-{[1-(1-methyl-1H-pyrazol-4-yl)-4-oxo-1,4-dihydropyridazin-3-yl]methoxy}phenyl)carbamate] | 6.00 to 7.00
11 | CC(C)COC(=O)Nc1ccc(OCc2nn(-c3cnn(C)c3)ccc2=O)cc1 [Example 123, 2-methylpropyl (4-{[1-(1-methyl-1H-pyrazol-4-yl)-4-oxo-1,4-dihydropyridazin-3-yl]methoxy}phenyl)carbamate] | 5.52 to 6.00
12 | C=C(Cc1nn(-c2cnn(C)c2)ccc1=O)c1ccc2ncccc2c1 [Example 124, 1-(1-Methyl-1H-pyrazol-4-yl)-3-(2-quinolin-6-ylprop-2-en-1-yl)pyridazin-4(1H)-one] | 6.00 to 7.00
13 | Cn1cc(-n2ccc(=O)c(OCc3ccc4ncccc4c3)n2)cn1 [Example 127, 1-(1-Methyl-1H-pyrazol-4-yl)-3-(quinolin-6-ylmethoxy)pyridazin-4(1H)-one] | 5.52 to 6.00
14 | CCn1cc(-n2ccc(=O)c(OCc3ccc4ncccc4c3)n2)cn1 [Example 128, 1-(1-ethyl-1H-pyrazol-4-yl)-3-(quinolin-6-ylmethoxy)pyridazin-4(1H)-one] | 6.00 to 7.00
15 | CC(Oc1nn(-c2cnn(C)c2)ccc1=O)c1ccc2ncccc2c1 (centres unmarked) [Example 130, 1-(1-methyl-1H-pyrazol-4-yl)-3-(1-quinolin-6-ylethoxy)pyridazin-4(1H)-one] | 6.00 to 7.00
16 | COc1ccnc2ccc(C(C)Oc3nn(-c4cnn(C)c4)ccc3=O)cc12 (centres unmarked) [Example 131, 3-[1-(4-methoxyquinolin-6-yl)ethoxy]-1-(1-methyl-1H-pyrazol-4-yl)pyridazin-4(1H)-one] | 6.00 to 7.00
17 | COc1ccnc2ccc(COc3nn(-c4cnn(C)c4)ccc3=O)cc12 [Example 137, 3-[(4-methoxyquinolin-6-yl)methoxy]-1-(1-methyl-1H-pyrazol-4-yl)pyridazin-4(1H)-one] | 5.52 to 6.00
18 | Cn1cc(-n2ccc(=O)c(NCc3ccc4ncccc4c3)n2)cn1 [Example 147, 1-(1-methyl-1H-pyrazol-4-yl)-3-[(quinolin-6-ylmethyl)amino]pyridazin-4(1H)-one] | 6.00 to 7.00
19 | CC(Nc1nn(-c2cnn(C)c2)ccc1=O)c1ccc2ncccc2c1 (centres unmarked) [Example 148] | > 7.00
20 | Cn1cc(-n2ccc(=O)c(SCc3ccc4ncccc4c3)n2)cn1 [Example 149, 1-(1-methyl-1H-pyrazol-4-yl)-3-[(quinolin-6-ylmethyl)thio]pyridazin-4(1H)-one] | > 7.00
21 | COC(=O)C(Cc1nn(-c2cnn(C)c2)ccc1=O)c1ccc2ncccc2c1 (centres unmarked) [Example 150, Methyl 3-[1-(1-methyl-1H-pyrazol-4-yl)-4-oxo-1,4-dihydropyridazin-3-yl]-2-(quinolin-6-yl)propanoate] | 5.52 to 6.00

Now from value to molecule:

Row | pIC50 | Structure (SMILES)
22 | > 7.00 | Cn1cc(-n2ccc(=O)c(CNc3ccc4ncccc4c3)n2)cn1 [Example 104, 1-(1-Methyl-1H-pyrazol-4-yl)-3-[(quinolin-6-ylamino)methyl]pyridazin-4(1H)-one]
23 | > 7.00 | Cn1cc(-n2ccc(=O)c(COc3ccc4ncsc4c3)n2)cn1 [Example 105, 3-[(1,3-Benzothiazol-6-yloxy)methyl]-1-(1-methyl-1H-pyrazol-4-yl)pyridazin-4(1H)-one]
24 | > 7.00 | COCCOc1cnc2ccc(OCc3nn(-c4cnn(C)c4)ccc3=O)cc2n1 [Example 106, 3-({[3-(2-methoxyethoxy)quinoxalin-6-yl]oxy}methyl)-1-(1-methyl-1H-pyrazol-4-yl)pyridazin-4(1H)-one]
25 | > 7.00 | Cn1cc(-n2ccc(=O)c(COc3ccc4ncc5c(c4c3)OCCO5)n2)cn1 [Example 107, 3-[(2,3-dihydro[1,4]dioxino[2,3-c]quinolin-9-yloxy)methyl]-1-(1-methyl-1H-pyrazol-4-yl)pyridazin-4(1H)-one]
26 | > 7.00 | CN(Cc1nn(-c2cnn(C)c2)ccc1=O)c1ccc2ncccc2c1 [Example 108, 1-(1-Methyl-1H-pyrazol-4-yl)-3-{[methyl(quinolin-6-yl)amino]methyl}pyridazin-4(1H)-one]
27 | > 7.00 | Cn1cc(-n2ccc(=O)c(COc3ccc4ncc(NC(=O)OC(C)(C)C)cc4c3)n2)cn1 [Example 110, tert-butyl (6-{[1-(1-methyl-1H-pyrazol-4-yl)-4-oxo-1,4-dihydropyridazin-3-yl]methoxy}quinolin-3-yl)carbamate]
28 | > 7.00 | Cn1cc(-n2ccc(=O)c(COc3ccc4ncc(NC(=O)Nc5cnc6ccc(OCc7nn(-c8cnn(C)c8)ccc7=O)cc6c5)cc4c3)n2)cn1 [Example 111, 1,3-bis(6-{[1-(1-methyl-1H-pyrazol-4-yl)-4-oxo-1,4-dihydropyridazin-3-yl]methoxy}quinolin-3-yl)urea]
29 | > 7.00 | Cn1cc(-n2ccc(=O)c(COc3ccc4ncc(N)cc4c3)n2)cn1 [Example 112, 3-{[(3-Aminoquinolin-6-yl)oxy]methyl}-1-(1-methyl-1H-pyrazol-4-yl)pyridazin-4(1H)-one]
30 | > 7.00 | Cn1cc(-c2cnc3ccc(COc4nn(-c5cnn(C)c5)ccc4=O)cc3c2)cn1 [Example 129, 1-(1-methyl-1H-pyrazol-4-yl)-3-{[3-(1-methyl-1H-pyrazol-4-yl)quinolin-6-yl]methoxy}pyridazin-4(1H)-one]
31 | > 7.00 | CCn1cc(-n2ccc(=O)c(OC(C)c3ccc4nccc(OC)c4c3)n2)cn1 (centres unmarked) [Example 132, 1-(1-ethyl-1H-pyrazol-4-yl)-3-[1-(4-methoxyquinolin-6-yl)ethoxy]pyridazin-4(1H)-one]
32 | > 7.00 | CC(Oc1nn(-c2cnn(C)c2)ccc1=O)c1ccc2ncc(-c3cnn(C)c3)cc2c1 (centres unmarked) [Example 136, 1-(1-methyl-1H-pyrazol-4-yl)-3-{1-[3-(1-methyl-1H-pyrazol-4-yl)quinolin-6-yl]ethoxy}pyridazin-4(1H)-one]

From patent US20130116231A1, “TYROSINE KINASE INHIBITORS” (Merck Sharp & Dohme Corp., priority 2010, published 2013)
